The target of assay [1] is T1, human LXRβ (Homo sapiens, UniProt P55055).
T1 construct: biotin (biotinylated; biotinylation tag not described); made in house; host or cells: E. coli
T1 sequence (P55055 1-460): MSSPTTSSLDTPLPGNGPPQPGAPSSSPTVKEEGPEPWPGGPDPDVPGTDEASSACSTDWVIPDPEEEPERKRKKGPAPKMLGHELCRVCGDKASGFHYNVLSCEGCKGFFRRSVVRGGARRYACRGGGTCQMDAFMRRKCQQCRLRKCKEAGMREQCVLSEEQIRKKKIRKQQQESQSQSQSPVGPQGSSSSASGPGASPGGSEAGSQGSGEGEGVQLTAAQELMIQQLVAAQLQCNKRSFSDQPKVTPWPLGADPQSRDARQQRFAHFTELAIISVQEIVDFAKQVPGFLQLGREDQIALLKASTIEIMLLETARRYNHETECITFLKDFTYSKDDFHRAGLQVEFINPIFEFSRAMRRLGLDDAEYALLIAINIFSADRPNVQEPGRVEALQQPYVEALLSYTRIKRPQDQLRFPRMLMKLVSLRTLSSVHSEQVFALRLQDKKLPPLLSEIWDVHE
The assay can be described thus: Ligand-binding test procedure for human LXRβ (3H T0901317 competition, flash plates). The note with it: for Binding ratio a/b: IC50 (μM) LXRα binding/IC50 (μM) LXRβ binding; for IC50: biotinylated hLXRβ, tracer 3H T0901317.

Assay [2] concerns the target T2, human LXRα (Homo sapiens, UniProt Q13133).
T2 construct: biotin (biotinylated; biotinylation tag not described); made in house; host or cells: E. coli
T2 sequence (Q13133 1-447): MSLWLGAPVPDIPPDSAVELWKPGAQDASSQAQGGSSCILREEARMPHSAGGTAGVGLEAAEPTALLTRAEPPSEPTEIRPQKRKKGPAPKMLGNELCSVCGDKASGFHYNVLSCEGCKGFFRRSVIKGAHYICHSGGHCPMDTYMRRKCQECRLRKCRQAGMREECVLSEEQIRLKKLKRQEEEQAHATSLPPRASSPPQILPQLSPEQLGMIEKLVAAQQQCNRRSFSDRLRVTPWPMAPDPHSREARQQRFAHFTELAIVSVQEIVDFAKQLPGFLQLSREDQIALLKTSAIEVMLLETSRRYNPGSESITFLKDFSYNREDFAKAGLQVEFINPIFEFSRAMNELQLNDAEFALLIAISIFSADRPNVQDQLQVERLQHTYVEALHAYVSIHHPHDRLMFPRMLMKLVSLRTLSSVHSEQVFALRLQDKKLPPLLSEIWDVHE
Nature of the assay: Ligand-binding test procedure for human LXRα (3H T0901317 competition, flash plates). The note with it: biotinylated hLXRα, tracer 3H T0901317. Put shortly:
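Competition binding of test ligands against 5 nM ³H tracer solution (pre-mix concentration) on biotinylated hLXRα from E. coli extract, captured on streptavidin flash plates (Bmax ~4000 cpm). Ligand dilution series made in DMSO. Incubated overnight at +4 °C; bound radioactivity counted after washing.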

Our source for the Binding ratio a/b and IC50 values is patent publication US20090069373A1, “Quinoline Acids” (Wyeth, priority 2007, published 2009).

As for `COc1ccc(C(=O)O)cc1OCc1cccc(-c2c(Cc3ccccc3)cnc3c(C(F)(F)F)cccc23)c1` [Example 98, 3-({3-[3-benzyl-8-(trifluoromethyl)quinolin-4-yl]benzyl}oxy)-4-methoxybenzoic acid], in assay [1], the Binding ratio a/b is on record as 2 and the IC50 worked out at 2500 nM. This compound displayed an IC50 in assay [2] of 5200 nM.

As for `O=C(O)c1c[nH]c2ccc(NCc3cccc(-c4c(Cc5ccccc5)cnc5c(C(F)(F)F)cccc45)c3)cc12` [Example 99, 5-({3-[3-benzyl-8-(trifluoromethyl)quinolin-4-yl]benzyl}amino)-1H-indole-3-carboxylic acid], in assay [1], the Binding ratio a/b came out at 2 and the IC50 was 620 nM. The compound also showed an IC50 in assay [2] of 1240 nM.

For the compound `O=C(O)c1ccc(COc2cccc(-c3c(Cc4ccccc4)cnc4c(C(F)(F)F)cccc34)c2)cc1` [Example 100, 4-({3-[3-benzyl-8-(trifluoromethyl)quinolin-4-yl]phenoxy}methyl)benzoic acid], in assay [1], the Binding ratio a/b is reported as 2. Moreover, the IC50 in assay [1] was 53 nM; in assay [2], 103 nM.

As for `O=C(O)c1ccc(NCc2cccc(-c3c(Cc4ccccc4)cnc4c(C(F)(F)F)cccc34)c2)cc1` [Example 101, 4-({3-[3-benzyl-8-(trifluoromethyl)quinolin-4-yl]benzyl}amino)benzoic acid], in assay [1], the Binding ratio a/b was 2 and the IC50 is 183 nM. In assay [2], this compound had an IC50 of 354 nM.

As for `Cc1ccc(OCc2cccc(-c3c(Cc4ccccc4)cnc4c(C(F)(F)F)cccc34)c2)c(C(=O)O)c1` [Example 102, 2-({3-[3-benzyl-8-(trifluoromethyl)quinolin-4-yl]benzyl}oxy)-5-methylbenzoic acid], in assay [1], the Binding ratio a/b is given as 2 and the IC50 came out at 2820 nM. This compound returned an IC50 in assay [2] of 4760 nM.

Turning to `Cc1c(NCc2cccc(-c3c(Cc4ccccc4)cnc4c(C(F)(F)F)cccc34)c2)ccc(C(=O)O)c1C` [Example 103, 4-({3-[3-benzyl-8-(trifluoromethyl)quinolin-4-yl]benzyl}amino)-2,3-dimethylbenzoic acid], in assay [1], the Binding ratio a/b worked out at 2 and the IC50 amounted to 3300 nM. The IC50 in assay [2] stood at 5040 nM.

Regarding `O=C(O)c1cc(F)ccc1OCc1cccc(-c2c(Cc3ccccc3)cnc3c(C(F)(F)F)cccc23)c1` [Example 104, 2-({3-[3-benzyl-8-(trifluoromethyl)quinolin-4-yl]benzyl}oxy)-5-fluorobenzoic acid], in assay [1], the Binding ratio a/b was found to be 1. In addition, the IC50 in assay [1] worked out at 2150 nM; in assay [2] it was 3200 nM.

Turning to `Cn1c(C(=O)O)cc2cccc(NCc3cccc(-c4c(Cc5ccccc5)cnc5c(C(F)(F)F)cccc45)c3)c21` [Example 105, 7-({3-[3-benzyl-8-(trifluoromethyl)quinolin-4-yl]benzyl}amino)-1-methyl-1H-indole-2-carboxylic acid], in assay [1], the Binding ratio a/b was 1 and the half-maximal inhibitory concentration (IC50) was determined as 129 nM. Also, in assay [2], the IC50 was 185 nM.

As to `Cc1cnc2c(C(F)(F)F)cccc2c1-c1cccc(CNc2cc(F)ccc2C(=O)O)c1` [Example 106, 4-fluoro-2-({3-[3-methyl-8-(trifluoromethyl)quinolin-4-yl]benzyl}amino)benzoic acid], the Binding ratio a/b in assay [1] came out at 1. The half-inhibitory concentration (IC50) in assay [1] is 5290 nM; in assay [2], 7280 nM.

For the compound `O=C(O)Cc1cccc2ccc(OCc3cccc(-c4ccnc5c(C(F)(F)F)cccc45)c3)cc12` [Example 107, [7-({3-[8-(trifluoromethyl)quinolin-4-yl]benzyl}oxy)-1-naphthyl]acetic acid], in assay [1], the Binding ratio a/b came out at 1 and the IC50 worked out at 5540 nM. Further, in assay [2], the IC50 came out at 7380 nM.

`Cc1c(C(=O)O)cc(Br)c(NCc2cccc(-c3c(Cc4ccccc4)cnc4c(C(F)(F)F)cccc34)c2)c1C` [Example 108, 4-({3-[3-benzyl-8-(trifluoromethyl)quinolin-4-yl]benzyl}amino)-5-bromo-2,3-dimethylbenzoic acid]: in assay [1], the Binding ratio a/b worked out at 1 and the half-inhibitory concentration (IC50) was determined as 2730 nM. Further, the IC50 in assay [2] is 3620 nM.

In the case of `O=C(O)c1cc2ccccc2cc1OCc1cccc(-c2c(Cc3ccccc3)cnc3c(C(F)(F)F)cccc23)c1` [Example 109, 3-({3-[3-benzyl-8-(trifluoromethyl)quinolin-4-yl]benzyl}oxy)-2-naphthoic acid], in assay [1], the Binding ratio a/b amounted to 1 and the half-inhibitory concentration (IC50) is 2730 nM. In assay [2], the IC50 came out at 3590 nM.

In the case of `O=C(O)c1ccc(NCc2cccc(-c3c(Cc4ccccc4)cnc4c(C(F)(F)F)cccc34)c2)c(OC(F)(F)F)c1` [Example 110, 4-({3-[3-benzyl-8-(trifluoromethyl)quinolin-4-yl]benzyl}amino)-3-(trifluoromethoxy)benzoic acid], in assay [1], the Binding ratio a/b is 1. Also, the half-maximal inhibitory concentration (IC50) in assay [1] was determined as 1580 nM; in assay [2], 2040 nM.

`O=C(O)c1c(Cl)cccc1NCc1cccc(-c2c(Cc3ccccc3)cnc3c(C(F)(F)F)cccc23)c1` [Example 111, 2-({3-[3-benzyl-8-(trifluoromethyl)quinolin-4-yl]benzyl}amino)-6-chlorobenzoic acid]: the Binding ratio a/b in assay [1] is given as 1. The half-maximal inhibitory concentration (IC50) in assay [1] stood at 709 nM; in assay [2], 874 nM.

For `O=C(O)c1cc(F)ccc1NCc1cccc(-c2c(Cc3ccccc3)cnc3c(C(F)(F)F)cccc23)c1` [Example 112, 2-({3-[3-benzyl-8-(trifluoromethyl)quinolin-4-yl]benzyl}amino)-5-fluorobenzoic acid], in assay [1], the Binding ratio a/b was 1 and the IC50 was 464 nM. For the same compound, the IC50 in assay [2] came out at 517 nM.

`O=C(O)c1ccc(COc2cccc(-c3c(Cc4ccccc4)cnc4c(C(F)(F)F)cccc34)c2)c(Cl)c1` [Example 113, 4-({3-[3-benzyl-8-(trifluoromethyl)quinolin-4-yl]phenoxy}methyl)-3-chlorobenzoic acid]: in assay [1], the Binding ratio a/b is reported as 1 and the IC50 turned out to be 1560 nM. This compound returned an IC50 in assay [2] of 1720 nM.

As to `O=C(O)Cc1ccc2cccc(OCc3cccc(-c4c(Cc5ccccc5)cnc5c(C(F)(F)F)cccc45)c3)c2c1` [Example 114, [8-({3-[3-benzyl-8-(trifluoromethyl)quinolin-4-yl]benzyl}oxy)-2-naphthyl]acetic acid], in assay [1], the Binding ratio a/b was 1 and the 50% inhibitory concentration (IC50) was determined as 1190 nM. The same compound displayed an IC50 in assay [2] of 1290 nM.

Turning to `Cc1cnc2c(C(F)(F)F)cccc2c1-c1cccc(CNc2cccc(F)c2C(=O)O)c1` [Example 115, 2-fluoro-6-({3-[3-methyl-8-(trifluoromethyl)quinolin-4-yl]benzyl}amino)benzoic acid], in assay [1], the Binding ratio a/b is 1. Besides, the IC50 in assay [1] was determined as 10300 nM; in assay [2] it was 10700 nM.

Take `O=C(O)Cc1cccc2c(NCc3cncc(-c4ccnc5c(C(F)(F)F)cccc45)c3)cccc12` [Example 116, {5-[({5-[8-(trifluoromethyl)quinolin-4-yl]pyridin-3-yl}methyl)amino]-1-naphthyl}acetic acid]: the IC50 was 15700 nM in assay [1] and > 10000 nM in assay [2].

On to `Cc1cc(NCc2cncc(-c3c(C)cnc4c(C(F)(F)F)cccc34)c2)c(C)cc1CC(=O)O` [Example 117, {2,5-dimethyl-4-[({5-[3-methyl-8-(trifluoromethyl)quinolin-4-yl]pyridin-3-yl}methyl)amino]phenyl}acetic acid], for which the IC50 in assay [1] was 2520 nM; in assay [2], > 1000 nM.

For the compound `O=C(O)Cc1cccc2c(OCc3cncc(-c4ccnc5c(C(F)(F)F)cccc45)c3)cccc12` [Example 118, [5-({5-[8-(trifluoromethyl)quinolin-4-yl]pyridin-3-yl}methoxy)-1-naphthyl]acetic acid], the IC50 in assay [1] was 3740 nM; in assay [2] it was > 1000 nM.

`Cc1cnc2c(C(F)(F)F)cccc2c1-c1cncc(CNc2cccc3c(CC(=O)O)cccc23)c1` [Example 119, {5-[({5-[3-methyl-8-(trifluoromethyl)quinolin-4-yl]pyridin-3-yl}methyl)amino]-1-naphthyl}acetic acid]: the IC50 in assay [1] was 7220 nM; in assay [2] it was > 1000 nM.

Take `O=C(O)Cc1ccc(NCc2cncc(-c3ccnc4c(C(F)(F)F)cccc34)c2)cc1` [Example 120, {4-[({5-[8-(trifluoromethyl)quinolin-4-yl]pyridin-3-yl}methyl)amino]phenyl}acetic acid]: the IC50 in assay [1] and in assay [2] was > 1000 nM in each case.

The term IC50 denotes the concentration that inhibits the measured activity by half. A higher IC50 goes with lower potency.
